Measurements taken from PubChem BioAssay AID1963825 (Molecular Pharmacology Branch, DTP, NCI, 2024).

Experiment: Anticancer human tumor 997537-175-T-J1-PDC patient-derived colon adenocarcinoma cell line growth inhibition [POLQ]
Settings: 997537-175-T-J1-PDC complex spheroid viability, combination with POLQ inhibitors; for IC50: curve of first compound; for viability, T/C: stronger effect = lower value; active means viability on the fitted dose curve at most 10% of control; inactive means the rest
Method in brief: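 Patient-derived tumour cells were co-cultured with HUVEC and mesenchymal stem cells as multicellular spheroids at 37 °C. They were treated with POLQ inhibitors (novobiocin, ART-558, RP6685) alone or combined with other agents. Top concentrations were at or near clinical Cmax (otherwise 10 microM; SN-38 at 1 microM), decreasing in half-log steps.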

[1] = second compound 0.0316 µM, first compound 0.0316 µM
[2] = second compound 0.0316 µM, first compound 0.1 µM
[3] = second compound 0.0316 µM, first compound 0.316 µM
[4] = second compound 0.0316 µM, first compound 1 µM
[5] = second compound 0.1 µM, first compound 0.0316 µM
[6] = second compound 0.1 µM, first compound 0.1 µM
[7] = second compound 0.1 µM, first compound 0.316 µM
[8] = second compound 0.1 µM, first compound 1 µM
[9] = second compound 0.316 µM, first compound 0.0316 µM
[10] = second compound 0.316 µM, first compound 0.1 µM
[11] = second compound 0.316 µM, first compound 0.316 µM
[12] = second compound 0.316 µM, first compound 1 µM
[13] = second compound 1 µM, first compound 0.0316 µM
[14] = second compound 1 µM, first compound 0.1 µM
[15] = second compound 1 µM, first compound 0.316 µM
[16] = second compound 1 µM, first compound 1 µM
[17] = second compound 3.16 µM, first compound 0.0316 µM
[18] = second compound 3.16 µM, first compound 0.1 µM
[19] = second compound 3.16 µM, first compound 0.316 µM
[20] = second compound 3.16 µM, first compound 1 µM
[21] = second compound 10 µM, first compound 0.0316 µM
[22] = second compound 10 µM, first compound 0.1 µM
[23] = second compound 10 µM, first compound 0.316 µM
[24] = second compound 10 µM, first compound 1 µM
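Further: luminescence signal used as a surrogate for viable cells; spheroids exposed to drugs for seven days before readout.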

CCc1c2c(nc3ccc(O)cc13)-c1cc3c(c(=O)n1C2)COC(=O)[C@]3(O)CC + COC1C(OC(N)=O)C(O)C(Oc2ccc3c(O)c(NC(=O)c4ccc(O)c(CC=C(C)C)c4)c(=O)oc3c2C)OC1(C)C
0.0194 µM: IC50 (second compound 0.1 µM)
inactive: viability, T/C (second compound 0.0316 µM, first compound 0.00316 µM) 73.2% | viability, T/C (second compound 0.0316 µM, first compound 0.01 µM) 79.5% | viability, T/C [1] 33.5% | viability, T/C [2] 22.7% | viability, T/C [3] 4.91% | viability, T/C [4] 4.67% | viability, T/C (second compound 0.1 µM, first compound 0.00316 µM) 72.3% | viability, T/C (second compound 0.1 µM, first compound 0.01 µM) 74.8% | viability, T/C [5] 32.9% | viability, T/C (second compound 0.316 µM, first compound 0.00316 µM) 78% | viability, T/C (second compound 0.316 µM, first compound 0.01 µM) 73% | viability, T/C [9] 33.8% | viability, T/C [10] 14.3% | viability, T/C (second compound 1 µM, first compound 0.00316 µM) 88.8% | viability, T/C (second compound 1 µM, first compound 0.01 µM) 60.1% | viability, T/C [13] 32.1% | viability, T/C [14] 19.2% | viability, T/C (second compound 3.16 µM, first compound 0.00316 µM) 88.9% | viability, T/C (second compound 3.16 µM, first compound 0.01 µM) 74% | viability, T/C [17] 29.4% | viability, T/C [18] 11.4% | viability, T/C (second compound 10 µM, first compound 0.00316 µM) 63.9% | viability, T/C (second compound 10 µM, first compound 0.01 µM) 57.9% | viability, T/C [21] 26.3% | viability, T/C [22] 15%
0.0153 µM: IC50 (second compound 1 µM)
0.0186 µM: IC50 (second compound 3.16 µM)
0.0197 µM: IC50 (second compound 0.316 µM)
0.0131 µM: IC50 (second compound 10 µM)
0.0203 µM: IC50 (second compound 0.0316 µM)
active: viability, T/C [6] 14.3% | viability, T/C [7] 7.35% | viability, T/C [8] 6.22% | viability, T/C [11] 6.7% | viability, T/C [12] 6.93% | viability, T/C [15] 6.28% | viability, T/C [16] 5.11% | viability, T/C [19] 7.04% | viability, T/C [20] 7.5% | viability, T/C [23] 6.46% | viability, T/C [24] 9.61%

CC1COCCN1c1cc(C2(O)CC3CCC(C2)O3)c2cnn(-c3ccn[nH]3)c2n1 (centres undefined) + Nc1ccc(C#CCN(C(=O)Cc2ncc(C(F)(F)F)cc2C(F)(F)F)c2ccc(F)cc2)nn1
1.7 µM: IC50 (second compound 0.0316 µM)
3.16 µM: IC50 (second compound 3.16 µM)
6.2 µM: IC50 (second compound 1 µM)
> 10 µM: IC50 (second compound 0.1 µM) | IC50 (second compound 0.316 µM) | IC50 (second compound 10 µM)
inactive: viability, T/C [1] 94.8% | viability, T/C [2] 83.7% | viability, T/C [3] 58.4% | viability, T/C [4] 56.8% | viability, T/C (second compound 0.0316 µM, first compound 3.16 µM) 40.1% | viability, T/C (second compound 0.0316 µM, first compound 10 µM) 53.3% | viability, T/C [5] 98.8% | viability, T/C [6] 73.5% | viability, T/C [7] 42.5% | viability, T/C [8] 72.8% | viability, T/C (second compound 0.1 µM, first compound 3.16 µM) 48% | viability, T/C (second compound 0.1 µM, first compound 10 µM) 64.5% | viability, T/C [9] 93.2% | viability, T/C [10] 80.8% | viability, T/C [11] 49.9% | viability, T/C [12] 46.3% | viability, T/C (second compound 0.316 µM, first compound 3.16 µM) 51.4% | viability, T/C (second compound 0.316 µM, first compound 10 µM) 75.1% | viability, T/C [13] 97.3% | viability, T/C [14] 69.4% | viability, T/C [15] 63.1% | viability, T/C [16] 47.6% | viability, T/C (second compound 1 µM, first compound 3.16 µM) 58.6% | viability, T/C (second compound 1 µM, first compound 10 µM) 44.7% | viability, T/C [17] 82.4% | viability, T/C [18] 79.1% | viability, T/C [19] 42% | viability, T/C [20] 56.4% | viability, T/C (second compound 3.16 µM, first compound 3.16 µM) 42.8% | viability, T/C (second compound 3.16 µM, first compound 10 µM) 74.7% | viability, T/C [21] 94% | viability, T/C [22] 79.9% | viability, T/C [23] 55.3% | viability, T/C [24] 52.2% | viability, T/C (second compound 10 µM, first compound 3.16 µM) 62% | viability, T/C (second compound 10 µM, first compound 10 µM) 65.2%
